Experimental data: patent US20100004238A1, “FUSED HETEROCYCLIC COMPOUND” (TAKEDA PHARMACEUTICAL COMPANY LIMITED, priority 2006, published 2010)
Structures can show the parent of a compound that is named as a salt.

Assays:
[1] = system: human breast cancer cell BT-474; experiment: Inhibitory action on breast cancer cell BT-474 proliferation in vitro; type: cell-based; conditions: 120 h, BT-474 cells, cultured for 5 days with compound, SRB protein content
Description: A suspension of human breast cancer cell BT-474 (100 μl (6,000 cells)) were plated in a 96-well microplate and cultured in an incubator (37° C., 5% carbon dioxide). On the following day, 100 μl of a solution of each test compound previously diluted serially in 2-fold, was added, and the cells were cultured for 5 days. After the culture medium containing the test compound was removed, the cells were washed and fixed with 50% trichloroacetic acid, after which a 0.4% (w/v) SRB dye solution (dissolved in 1% acetic acid) was added to stain as well as fix the cell protein (Skehan et al., Journal of the National Cancer Institute, Vol. 82, pp. 1107-1112, 1990). After washing with a 1% acetic acid solution, 100 μl of extract solution (10 mM, Tris buffer) was added to extract the dye and the absorbance was measured at a wavelength of 550 nm to quantify the amount of cells as protein content. Taking as 100% the protein content for the control group, which received no test compound solution, the ratio of the residual protein content for each treatment group was determined, and the compound concentration required to achieve 50% suppression of the residual cell content relative to the control (IC50 value) was calculated.

[2] = biological target: T1, HER2 intracellular domain (HER2 kinase) (Homo sapiens, UniProt P04626); experiment: Determination of HER2 kinase inhibitory activity; type: biochemical; conditions: compound at 1.0 μM, poly-Glu:Tyr (4:1) substrate, [γ-32P]ATP, read-out: inhibitory rate (%) at 1.0 μM
T1 construct: made in house; host or cells: SF-21 insect cells infected with recombinant baculovirus BAC-HER2
Description: Human HER2 gene was cloned by RT-PCR using total RNA prepared from MCF7 cells as a template. The primer used for RT-PCR was prepared in consideration of the information of nucleotide sequence (Genbank Accession No. M11730) of HER2 gene by adding a nucleotide sequence encoding DYKDDDD peptide and a restriction enzyme recognition sequence to a nucleotide sequence (corresponding to 2176-3918 of Genbank Accession No. M11730 as a base, 676-1255 amino acids of Genbank Accession No. NP_004439 as a protein) encoding the HER2 intracellular domain region such that the protein contains an N-terminal DYKDDDD peptide tag. The primer nucleotide sequence is shown below.
SF-21 cells were sown at 1×10^6 cells/mL in Sf-900II SFM medium (1 L, Invitrogen) containing 10% fetal bovine serum (trace), 50 mg/L gentamicin (Invitrogen) and 0.1% Pluronic F-68 (Invitrogen), and shaking culture was performed using a 2 L volume Erlenmeyer flask at 27° C., 100 rpm. After culturing for 24 hr, recombinant baculovirus BAC-HER2 (13.4 mL) was added, and the mixture was further cultured for 3 days. The culture medium was centrifuged at 2,000 rpm for 5 min to give virus-infected cells. The infected cells were washed with a phosphate buffered saline (Invitrogen), centrifuged under the same conditions, and the cells were preserved at −80° C. The cryopreserved cells were thawed in ice, suspended in buffer A (50 mM Tris buffer (30 mL, pH 7.4) containing 20% glycerol, 0.15 M NaCl) supplemented with Complete Protease Inhibitor (Boehringer), and ruptured 3 times with a Polytron homogenizer (Kinematica) at 20,000 rpm for 30 sec. The ruptured solution was clarified by centrifugation at 40,000 rpm for 30 min, and filtered with a 0.45 μm filter. The filtrate was passed through a column packed with Anti-FLAG M2 Affinity Gel (4 mL, Sigma-Aldrich) at a flow rate of about 0.5 mL/min. The column was washed with buffer A, and eluted with buffer A containing 100 μg/mL of FLAG peptide. The eluent was concentrated with Vivaspin 20 (Vivascience) having a molecular weight cut off of 30K. The concentrate was purified by gel filtration using Hi Load 16/60 Superdex 200 pg (GE Healthcare Bioscience) equilibrated with buffer A. The fractions containing HER2 intracellular domain were collected and cryopreserved at −80° C.
HER2 kinase reaction was performed using a 96 well plate. As a buffer for kinase reaction, a buffer having a composition of 50 mM Tris-HCl (pH 7.5), 5 mM MnCl2, 2 mM dithiothreitol, 0.01% Tween-20 was used. The compound of the present invention was dissolved in dimethyl sulfoxide (DMSO), and diluted with the kinase reaction buffer so that DMSO concentration would be 0.1% during kinase reaction. This compound solution (10 μL) was mixed with a kinase reaction buffer […] containing HER2 intracellular domain (0.625 μg/mL) obtained in Experimental Example 1B and polypeptide substrate poly-Glu:Tyr (4:1) (Sigma Ltd., 12.5 μg/mL), and the mixture was stood at room temperature for 5 min. Then, a kinase reaction buffer (20 μL) containing 125 μM ATP and 45 μCi/mL [γ-^32P]ATP was added, and the kinase reaction was initiated with 50 μL of the final reaction mixture. A kinase reaction was performed at room temperature for 10 min, and the kinase reaction was quenched by addition of 20% TCA solution (50 μL). The mixture after completion of the reaction was stood at room temperature for 30 min, and acid insoluble fractions in the mixture after completion of the reaction were collected in a 96 well GF/C filter plate (PerkinElmer) using a cell harvester (PerkinElmer). Thereafter, the filter containing the acid insoluble fractions was washed with 3% phosphoric acid solution. After washing, the filter plate was dried at 45° C. for 60 min, and 25 μL of MicroScinti 0 (PerkinElmer) was added. The radioactivity was measured using TopCount (PerkinElmer). HER2 kinase inhibitory rate (%) of the test compound was calculated by the following formula: […]

T1 sequence (P04626 676-1255): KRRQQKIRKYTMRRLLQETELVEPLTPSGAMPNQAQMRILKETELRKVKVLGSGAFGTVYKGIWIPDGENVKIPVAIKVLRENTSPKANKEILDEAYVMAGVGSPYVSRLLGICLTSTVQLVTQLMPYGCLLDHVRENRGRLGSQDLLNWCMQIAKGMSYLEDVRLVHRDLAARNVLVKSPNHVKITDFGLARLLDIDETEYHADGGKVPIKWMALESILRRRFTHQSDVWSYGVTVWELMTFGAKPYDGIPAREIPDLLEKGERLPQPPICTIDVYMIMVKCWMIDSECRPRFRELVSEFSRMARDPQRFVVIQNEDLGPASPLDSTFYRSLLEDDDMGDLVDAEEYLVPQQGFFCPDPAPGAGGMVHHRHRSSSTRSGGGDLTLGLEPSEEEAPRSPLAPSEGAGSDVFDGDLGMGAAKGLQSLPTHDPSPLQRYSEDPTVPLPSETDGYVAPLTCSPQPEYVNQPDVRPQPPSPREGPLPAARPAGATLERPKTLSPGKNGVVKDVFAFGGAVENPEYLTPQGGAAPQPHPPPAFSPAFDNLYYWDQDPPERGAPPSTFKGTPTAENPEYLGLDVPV

| SMILES | IC50 [1] | inhibition at 1 µM [2] |
| --- | --- | --- |
| CC(C)(O)CC(=O)NCCn1ccc2ncnc(Nc3ccc(Oc4ccc5ccnn5c4)c(Cl)c3)c21 [Example 147, N-[2-(4-{[3-chloro-4-(pyrazolo[1,5-a]pyridin-6-yloxy)phenyl]amino}-5H-pyrrolo[3,2-d]pyrimidin-5-yl)ethyl]-3-hydroxy-3-methylbutanamide hydrochloride] | < 100 nM |  |
| CC(C)(CO)C(=O)NCCn1ccc2ncnc(Nc3ccc(Oc4ccn5ccnc5c4)c(Cl)c3)c21 [Example 164, N-[2-(4-{[3-chloro-4-(imidazo[1,2-a]pyridin-7-yloxy)phenyl]amino}-5H-pyrrolo[3,2-d]pyrimidin-5-yl)ethyl]-3-hydroxy-2,2-dimethylpropanamide] |  | 100% |
| OCCn1ccc2ncnc(Nc3ccc(Oc4cccc5[nH]ncc45)c(Cl)c3)c21 [Example 95, 2-(4-{[3-chloro-4-(1H-indazol-4-yloxy)phenyl]amino}-5H-pyrrolo[3,2-d]pyrimidin-5-yl)ethanol] | < 100 nM | 100% |
| Cn1ccc2ncnc(Nc3ccc(Oc4cccc5[nH]ncc45)c(Cl)c3)c21 [Example 86, N-[3-chloro-4-(1H-indazol-4-yloxy)phenyl]-5-methyl-5H-pyrrolo[3,2-d]pyrimidin-4-amine] | < 100 nM |  |
| CC(C)(C)NC(=O)c1cccc(Oc2ccc(Nc3ncnc4ccn(CCO)c34)cc2Cl)n1 [Example 29, N-(tert-butyl)-6-(2-chloro-4-{[5-(2-hydroxyethyl)-5H-pyrrolo[3,2-d]pyrimidin-4-yl]amino}phenoxy)pyridine-2-carboxamide] |  | 100% |
| CC(C)(CO)C(=O)NCCn1ccc2ncnc(Nc3ccc(Oc4cccc5sccc45)c(Cl)c3)c21 [Example 127, N-[2-(4-{[4-(1-benzothiophen-4-yloxy)-3-chlorophenyl]amino}-5H-pyrrolo[3,2-d]pyrimidin-5-yl)ethyl]-3-hydroxy-2,2-dimethylpropanamide tosylate] |  | 99% |
| OCCn1ccc2ncnc(Nc3ccc(Oc4cccc5sccc45)c(Cl)c3)c21 [Example 83, 2-(4-{[4-(1-benzothiophen-4-yloxy)-3-chlorophenyl]amino}-5H-pyrrolo[3,2-d]pyrimidin-5-yl)ethanol] |  | 99% |
| O=C1Cc2c(cccc2Oc2ccc(Nc3ncnc4ccn(CCO)c34)cc2Cl)N1 [Example 28, 4-(2-chloro-4-{[5-(2-hydroxyethyl)-5H-pyrrolo[3,2-d]pyrimidin-4-yl]amino}phenoxy)-1,3-dihydro-2H-indol-2-one] | < 100 nM | 100% |
| OCCn1ccc2ncnc(Nc3ccc(Oc4cccc5[nH]ccc45)c(Cl)c3)c21 [Example 10, 2-(4-{[3-chloro-4-(1H-indol-4-yloxy)phenyl]amino}-5H-pyrrolo[3,2-d]pyrimidin-5-yl)ethanol] | < 100 nM | 99% |
| CN1C(=O)Cc2c(Oc3ccc(Nc4ncnc5cc(Cl)n(CCO)c45)cc3Cl)cccc21 [Example 170, 4-(2-chloro-4-{[6-chloro-5-(2-hydroxyethyl)-5H-pyrrolo[3,2-d]pyrimidin-4-yl]amino}phenoxy)-1-methyl-1,3-dihydro-2H-indol-2-one] |  | 97% |
| CC(C)(CO)C(=O)NCCn1ccc2ncnc(Nc3ccc(Oc4ccc5ccnn5c4)c(Cl)c3)c21 [Example 159, N-[2-(4-{[3-chloro-4-(pyrazolo[1,5-a]pyridin-6-yloxy)phenyl]amino}-5H-pyrrolo[3,2-d]pyrimidin-5-yl)ethyl]-3-hydroxy-2,2-dimethylpropanamide methanesulfonate] |  | 100% |
| CC(C)(CO)C(=O)NCCn1ccc2ncnc(Nc3ccc(Oc4ccn5ncnc5c4)c(Cl)c3)c21 [Example 166, N-[2-(4-{[3-chloro-4-([1,2,4]triazolo[1,5-a]pyridin-7-yloxy)phenyl]amino}-5H-pyrrolo[3,2-d]pyrimidin-5-yl)ethyl]-3-hydroxy-2,2-dimethylpropanamide] | < 100 nM |  |
| CC(C)(CO)C(=O)NCCn1ccc2ncnc(Nc3ccc(Oc4cccc5sccc45)c(Cl)c3)c21 [Example 114, N-[2-(4-{[4-(1-benzothiophen-4-yloxy)-3-chlorophenyl]amino}-5H-pyrrolo[3,2-d]pyrimidin-5-yl)ethyl]-3-hydroxy-2,2-dimethylpropanamide] | < 100 nM |  |
| CC(C)(C)NC(=O)c1cncc(Oc2ccc(Nc3ncnc4ccn(CCO)c34)cc2Cl)c1 [Example 26, N-(tert-butyl)-5-(2-chloro-4-{[5-(2-hydroxyethyl)-5H-pyrrolo[3,2-d]pyrimidin-4-yl]amino}phenoxy)nicotinamide] | < 100 nM | 100% |
